Assay results published in US20120225905A1, “BEPOTASTINE COMPOSITIONS” (Mitsubishi Tanabe Pharma Corporation, priority 2010, published 2012).

Experiment: Clinical Example 1: pharmacokinetic assessments
Assay type: in vivo, human
Details: plasma, noncompartmental PK analysis
Protocol: At Visit 3 (a minimum of 3 days after Visit 2), a subset of approximately 35 subjects who qualified at Visit 2 were randomized and began PK blood draws in the clinic that occurred over 24 hours for placebo, 2%, 4%, or 6% dosages of bepotastine besilate (using a randomization ratio of 1:1:1:1). There were approximately nine subjects in each of the four treatment groups. Blood sampling for PK assessments was drawn within 90 minutes (pre-dose). Subjects were dosed and additional blood samples were collected at 10, 20, 30, and 45 minutes post-dose and at 1, 1.25, 2, 3, 4, 6, 10, and 12 hours post-dose while remaining in the clinic. Subjects returned the next day for a 24 hour post-dose PK blood draw. PK blood draws at 1, 1.25, 2, 3, 4, 6, 10, and 12 hours post-dose were within a ±1 minute window and at 24 hours post dose were within a ±60 minute window.
All subjects who qualified at Visit 2 returned to the clinic for Visit 4 following a minimum ten day washout period. At Visit 4, subjects recorded individual nasal and ocular symptoms on 0-3 unit scales prior to entering the EEC and every 30 minutes for the first two hours while in the EEC, including just prior to dosing. […] At the end of Visit 4, subjects recorded reflective nasal symptom scores, summarizing their subjective opinion of each nasal and ocular symptom score (same 0-3 unit scales), over the entire post-dosing period in the EEC. […]

absorption from the nasal sprays: absorbed quickly
half-life: short
Compound: O=C(O)CCCN1CCC(O[C@@H](c2ccc(Cl)cc2)c2ccccn2)CC1 [bepotastine, (+)-(S)-4-[4-[(4-chlorophenyl)(2-pyridyl)methoxy]piperidino]butyric acid]
